Key:
[1] = target: human vasopressin V2 receptor (Homo sapiens, UniProt P30518); assay: Receptor binding study, [3H]AVP displacement on CHO cell membranes, human V2; details: [3H]AVP displacement, CHO cell membrane, 25° C., one hour; read-out: Human V2 Ki
Procedure, shortened: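 Membranes from CHO cells expressing human V2 receptor incubated with [3H]AVP (0.5-1.0 nM) and test compound at various concentrations in 50 mM Tris-HCl pH 7.4 with MgCl2 and 0.1% BSA, 1 h at 25 °C. Bound radioactivity counted after glass-fibre filtration; nonspecific binding defined with 1 μM unlabelled AVP.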

[2] = target: human vasopressin V1a receptor (Homo sapiens, UniProt P37288); assay: Receptor binding study, [3H]AVP displacement on CHO cell membranes, human V1a; details: [3H]AVP displacement, CHO cell membrane, 25° C., one hour; read-out: Human V1a Ki
Sequence of human vasopressin V1a receptor (P37288 whole entry): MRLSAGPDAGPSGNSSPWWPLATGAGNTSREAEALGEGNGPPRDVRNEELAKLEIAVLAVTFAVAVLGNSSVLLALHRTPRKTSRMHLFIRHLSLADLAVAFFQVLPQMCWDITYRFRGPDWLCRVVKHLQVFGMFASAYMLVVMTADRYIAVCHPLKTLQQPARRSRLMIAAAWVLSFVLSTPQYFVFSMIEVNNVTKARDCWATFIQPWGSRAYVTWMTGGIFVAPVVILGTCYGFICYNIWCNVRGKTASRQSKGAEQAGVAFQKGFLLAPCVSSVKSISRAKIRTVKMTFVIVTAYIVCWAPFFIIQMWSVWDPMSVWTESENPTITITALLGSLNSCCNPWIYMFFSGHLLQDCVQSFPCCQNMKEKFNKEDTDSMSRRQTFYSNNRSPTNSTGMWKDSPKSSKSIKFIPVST
Procedure, shortened: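 Membrane binding in 50 mM Tris-HCl pH 7.4 with MgCl2 and 0.1% BSA, incubated 1 h at 25° C. Bound ligand collected by rapid filtration on glass fiber filters, washed with ice-cold buffer, and counted for radioactivity. Nonspecific binding defined with 1 μM unlabeled AVP.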

Sequence of human vasopressin V2 receptor (P30518 whole entry): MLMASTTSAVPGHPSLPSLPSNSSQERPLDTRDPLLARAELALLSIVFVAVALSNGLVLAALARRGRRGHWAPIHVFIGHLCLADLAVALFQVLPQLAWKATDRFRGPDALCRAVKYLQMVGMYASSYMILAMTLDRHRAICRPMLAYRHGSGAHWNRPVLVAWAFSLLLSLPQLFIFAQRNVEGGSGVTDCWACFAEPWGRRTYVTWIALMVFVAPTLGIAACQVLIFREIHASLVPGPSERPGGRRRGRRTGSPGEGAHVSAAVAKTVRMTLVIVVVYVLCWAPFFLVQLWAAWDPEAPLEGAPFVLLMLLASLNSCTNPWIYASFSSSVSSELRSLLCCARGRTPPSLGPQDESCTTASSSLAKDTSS

| Compound | Ki [1] [nM] | Ki [2] [nM] |
| --- | --- | --- |
| CNc1ccc(-c2ccc(C(=O)N3CC[C@H](C)Nc4ccccc43)cc2OCCCN2C(=O)CNC2=O)cc1 [Example 106, 3-[3-[[4′-(methylamino)-4-[[(4S)-4-methyl-2,3,4,5-tetrahydro-1H-1,5-benzodiazepin-1-yl]carbonyl][1,1′-biphenyl]-2-yl]oxy]propyl]-2,4-imidazolidinedion] | 2 | 0.14 |
| COc1cc(C(=O)N2CCC(C)Nc3ccccc32)ccc1-c1ccc2[nH]ccc2c1 (centres unmarked) [Example 1, 1-[4-(1H-indol-5-yl)-3-methoxybenzoyl]-4-methyl-2,3,4,5-tetrahydro-1H-1,5-benzodiazepine] | 1.7 | 0.39 |
| CCCN(C)CCCOC(=O)c1cc(C(=O)N2CC[C@H](C)Nc3ccccc32)ccc1-c1ccc2[nH]ccc2c1 [Example 132, 3-[methyl(propyl)amino]propyl 2-(1H-indol-5-yl)-5-[[(4S)-4-methyl-2,3,4,5-tetrahydro-1H-1,5-benzodiazepin-1-yl]carbonyl]benzoate] | 172 | 0.25 |
| CCCN(C)CCCCOc1cc(C(=O)N2CC[C@H](C)Nc3ccccc32)ccc1-c1ccc(NCC)cc1 [Example 156] | 53 | 0.19 |
| CC(=O)Nc1cc(C(=O)N2CC[C@H](C)Nc3ccccc32)ccc1-c1ccc2[nH]ccc2c1 [Example 17, N-[2-(1H-indol-5-yl)-5-[[(4S)-4-methyl-2,3,4,5-tetrahydro-1H-1,5-benzodiazepin-1-yl]carbonyl]phenyl]acetamide] | 11 | 0.13 |
| CC(=O)Nc1cc(C(=O)N2CC[C@@H](C)Nc3ccccc32)ccc1-c1ccc2[nH]ccc2c1 [Example 16, N-[2-(1H-indol-5-yl)-5-[[(4R)-4-methyl-2,3,4,5-tetrahydro-1H-1,5-benzodiazepin-1-yl]carbonyl]phenyl]acetamide] | 63 | 0.33 |
| CCCCN1CCN(CCCOc2cc(C(=O)N3CC[C@H](C)Nc4ccccc43)ccc2-c2ccc3[nH]ccc3c2)CC1 [Example 122, (4S)-1-[3-[3-(4-butyl-1-piperazinyl)propoxy]-4-(1H-indol-5-yl)benzoyl]-4-methyl-2,3,4,5-tetrahydro-1H-1,5-benzodiazepine] | 5.1 | 0.21 |
| C[C@H]1CCN(C(=O)c2ccc(-c3ccc4[nH]ccc4c3)c(C(=O)OCCCCN(C)C)c2)c2ccccc2N1 [Example 162, 4-(dimethylamino)butyl 2-(1H-indol-5-yl)-5-[[(4S)-4-methyl-2,3,4,5-tetrahydro-1H-1,5-benzodiazepin-1-yl]carbonyl]benzoate] | 29 | 0.13 |
| CCCN(C)CCCOc1cc(C(=O)N2CC[C@H](C)Nc3ccccc32)ccc1-c1ccc(NC)cc1 [Example 105, N-methyl-2′-[3-[methyl(propyl)amino]propoxy]-4′-[[(4S)-4-methyl-2,3,4,5-tetrahydro-1H-1,5-benzodiazepin-1-yl]carbonyl][1,1′-biphenyl]-4-amine] | 54 | 0.16 |
| CCCN1CCC(OC(=O)c2cc(C(=O)N3CC[C@H](C)Nc4ccccc43)ccc2-c2ccc3[nH]ccc3c2)CC1 [Example 138] | 34 | 0.23 |
| COc1cc(C(=O)N2CCC(C)(C)Nc3ccccc32)ccc1-c1ccc2[nH]ccc2c1 [Example 2, 1-[4-(1H-indol-5-yl)-3-methoxybenzoyl]-4,4-dimethyl-2,3,4,5-tetrahydro-1H-1,5-benzodiazepine] | 4.4 | 0.31 |
| CCN1CCC(OC(=O)c2cc(C(=O)N3CC[C@H](C)Nc4ccccc43)ccc2-c2ccc3[nH]ccc3c2)C1 (stereo partly drawn) [Example 145, 1-ethyl-3-pyrrolidinyl 2-(1H-indol-5-yl)-5-[[(4S)-4-methyl-2,3,4,5-tetrahydro-1H-1,5-benzodiazepin-1-yl]carbonyl]benzoate] | 20 | 0.12 |
| CCCN(C)CCCOc1cc(C(=O)N2CC[C@H](C)Nc3ccccc32)ccc1-c1ccc(OC(F)F)cc1 [Example 157, N-(3-[[4′-(difluoromethoxy)-4-[[(4S)-4-methyl-2,3,4,5-tetrahydro-1H-1,5-benzodiazepin-1-yl]carbonyl][1,1′-biphenyl]-2-yl]oxy]propyl]-N-methyl-N-propylamine] | 28 | 0.28 |
| CCCN(CCC)CCCOc1cc(C(=O)N2CC[C@H](C)Nc3ccccc32)ccc1-c1ccc2[nH]ccc2c1 [Example 79, N-[3-[2-(1H-indol-5-yl)-5-[[(4S)-4-methyl-2,3,4,5-tetrahydro-1H-1,5-benzodiazepin-1-yl]carbonyl]phenoxy]propyl]-N,N-dipropylamine] | 16 | 0.13 |

Further lines, results first:

| Ki [1] [nM] | Ki [2] [nM] | Compound |
| --- | --- | --- |
| 10 | 0.45 | C[C@H]1CCN(C(=O)c2ccc(-c3ccc4[nH]ccc4c3)c(OCCCN3CCC(N)CC3)c2)c2ccccc2N1 [Example 141, 1-[3-[2-(1H-indol-5-yl)-5-[[(4S)-4-methyl-2,3,4,5-tetrahydro-1H-1,5-benzodiazepin-1-yl]carbonyl]phenoxy]propyl]-4-piperidinylamine] |
| 10 | 0.25 | CCCN(C)C1CCN(CCOc2cc(C(=O)N3CC[C@H](C)Nc4ccccc43)ccc2-c2ccc3[nH]ccc3c2)CC1 [Example 151, N-[1-[2-[2-(1H-indol-5-yl)-5-[[(4S)-4-methyl-2,3,4,5-tetrahydro-1H-1,5-benzodiazepin-1-yl]carbonyl]phenoxy]ethyl]-4-piperidinyl]-N-methyl-N-propylamine] |
| 4.9 | 0.27 | C[C@@H]1CN(CCCOc2cc(C(=O)N3CC[C@H](C)Nc4ccccc43)ccc2-c2ccc3[nH]ccc3c2)C[C@H](C)O1 [Example 115, (4S)-1-[3-[3-[(2R,6S)-2,6-dimethylmorpholinyl]propoxy]-4-(1H-indol-5-yl)benzoyl]-4-methyl-2,3,4,5-tetrahydro-1H-1,5-benzodiazepine] |
| 6.9 | 0.19 | C[C@H]1CCN(C(=O)c2ccc(-c3ccc4[nH]ccc4c3)c(OCCCN3CCN(C)CC3)c2)c2ccccc2N1 [Example 70, (4S)-1-[4-(1H-indol-5-yl)-3-[3-(4-methyl-1-piperazinyl)propoxy]benzoyl]-4-methyl-2,3,4,5-tetrahydro-1H-1,5-benzodiazepine] |
| 17 | 0.24 | C[C@H]1CCN(C(=O)c2ccc(-c3ccc4[nH]ccc4c3)c(OCCCCCN3CCOCC3)c2)c2ccccc2N1 [Example 69, (4S)-1-[4-(1H-indol-5-yl)-3-[[5-(4-morpholinyl)pentyl]oxy]benzoyl]-4-methyl-2,3,4,5-tetrahydro-1H-1,5-benzodiazepine] |
| 9.9 | 0.38 | C[C@H]1CCN(C(=O)c2ccc(-c3ccc4[nH]ccc4c3)c(OCCCN3CCC(N(C)C)CC3)c2)c2ccccc2N1 [Example 123] |
| 6.5 | 0.13 | C[C@H]1CCN(C(=O)c2ccc(-c3ccc4[nH]ccc4c3)c(OCCN3CCN(C)CC3)c2)c2ccccc2N1 [Example 110, (4S)-1-[4-(1H-indol-5-yl)-3-[2-(4-methyl-1-piperazinyl)ethoxy]benzoyl]-4-methyl-2,3,4,5-tetrahydro-1H-1,5-benzodiazepine] |
| 39 | 0.2 | CCCN1CCN(CCCOc2cc(C(=O)N3CC[C@@H](C)Nc4ccccc43)ccc2-c2ccc3[nH]ccc3c2)CC1 [Example 128, (4R)-1-[4-(1H-indol-5-yl)-3-[3-(4-propyl-1-piperazinyl)propoxy]benzoyl]-4-methyl-2,3,4,5-tetrahydro-1H-1,5-benzodiazepine] |
| 8 | 0.17 | CCCN(C)CCCOc1cc(C(=O)N2CC[C@H](C)Nc3ccccc32)ccc1-c1ccc2[nH]ccc2c1 [Example 81, N-[3-[2-(1H-indol-5-yl)-5-[[(4S)-4-methyl-2,3,4,5-tetrahydro-1H-1,5-benzodiazepin-1-yl]carbonyl]phenoxy]propyl]-N-methyl-N-propylamine] |
| 16 | 0.16 | C[C@H]1CCN(C(=O)c2ccc(-c3ccc4[nH]ccc4c3)c(OCCCN(C)C(C)(C)C)c2)c2ccccc2N1 [Example 82, N-(tert-butyl)-N-[3-[2-(1H-indol-5-yl)-5-[[(4S)-4-methyl-2,3,4,5-tetrahydro-1H-1,5-benzodiazepin-1-yl]carbonyl]phenoxy]propyl]-N-methylamine] |
| 3 | 0.3 | C[C@H]1CCN(C(=O)c2ccc(-c3ccc4[nH]ccc4c3)c(OCCCN3CCC[C@H]3C(N)=O)c2)c2ccccc2N1 [Example 88, (2S)-1-[3[2-(1H-indol-5-yl)-5-[[(4S)-4-methyl-2,3,4,5-tetrahydro-1H-1,5-benzodiazepin-1-yl]carbonyl]phenoxy]propyl]-2-pyrrolidine carboxamide] |
| 10 | 0.14 | CCCN(C)CCOc1cc(C(=O)N2CC[C@H](C)Nc3ccccc32)ccc1-c1ccc2[nH]ccc2c1 [Example 121, N-[2-[2-(1H-indol-5-yl)-5-[[(4S)-4-methyl-2,3,4,5-tetrahydro-1H-1,5-benzodiazepin-1-yl]carbonyl]phenoxy]ethyl]-N-methyl-1-propaneamine] |
| 11 | 0.23 | CC1CCN(C(=O)c2ccc(-c3ccc4[nH]ccc4c3)c(OCCCCN)c2)c2ccccc2N1 (centres unmarked) [Example 36, 4-[2-(1H-indol-5-yl)-5-[(4-methyl-2,3,4,5-tetrahydro-1H-1,5-benzodiazepin-1-yl)carbonyl]phenoxy]-1-butaneamine] |
| 18 | 0.22 | CCCCN(C)CCCOc1cc(C(=O)N2CC[C@H](C)Nc3ccccc32)ccc1-c1ccc2[nH]ccc2c1 [Example 114, N-[3-[2-(1H-indol-5-yl)-5-[[(4S)-4-methyl-2,3,4,5-tetrahydro-1H-1,5-benzodiazepin-1-yl]carbonyl]phenoxy]propyl]-N-methyl-1-butaneamine] |

Reference: patent US20080076760A1, “2,3,4,5-TETRAHYDRO-1H-1,5-BENZODIAZEPINE DERIVATIVE AND MEDICINAL COMPOSITION” (priority 2004, published 2008)
